Experiments:
[1] = Pharmacokinetic (PK) study in rats; assay type: in vivo; settings: SD rats, PO 20 mg/kg
Description: SD rats (B&K Universal, Shanghai) of 180-220 g were randomized into groups of 3 after 3-5 days of acclimatization and administered with the compounds at a dose of 20 mg/kg by oral gavage.
The animals to be tested (SD rats) were fasted for 12 h before administration and fed 4 h after administration, and had free access to water before, after and during the experiment.
After administration, about 0.2 mL of blood was collected from the orbit at 0 min, 15 min, 30 min, 1 h, 2 h, 4 h, 6 h, 8 h, 10 h, 24 h, 30 h and 48 h. After anticoagulation with EDTA-K2, the blood samples were transferred to a centrifuge at 4° C. within 30 min and centrifuged at 4000 rpm for 10 min to separate the plasma. All the plasma samples were collected and immediately stored at −20° C. for testing. 50 μL of the plasma sample to be tested and standard curve sample were taken, and 500 μL of acetonitrile solution containing an internal standard (20 mg/mL diazepam) was added. The reaction system was shaken for 5 min and centrifuged at 12,000 rpm for 10 min. 75 μL of supernatant was taken and diluted with 75 μL of ultrapure water.
After being mixed well, 1 μL of the resulting sample was taken for LC/MS/MS analysis.

[2] = Plasma protein binding assay (equilibrium dialysis), rat plasma; assay type: in vitro ADME
Description: (§1) Preparation of plasma samples: 5 μL of test compound solution or positive control was added to 495 μL of blank plasma of various species (mouse, rat, dog, monkey and human) to obtain plasma sample solutions at plasma concentrations of 1 μM and 10 μM (in acetonitrile).
(§2) The pretreated dialysis membrane was loaded on a high-throughput equilibrium dialysis system. 100 μL of the plasma sample solution and PBS buffer were added to the two sides (sample side and buffer side) of the dialysis membrane respectively (n=3). The system was sealed with a patch and incubated at 37° C. overnight (100 rpm) to achieve dialysis equilibrium. 50 μL samples were taken from the sample side and the buffer side, and the reaction was terminated with glacial acetonitrile containing an internal standard.
(§3) Sample pretreatment: 450 μL of glacial acetonitrile containing an internal standard was added to 50 μL of the sample from the plasma side for precipitation. The mixture was vortexed for 5 min, and centrifuged (12000 rpm, 4° C.) for 10 min. 75 μL of supernatant was taken and diluted with 75 μL of ultrapure water. After being mixed well, 1 μL of the resulting sample was injected for analysis; 250 μL of glacial acetonitrile containing an internal standard was added to 50 μL of the sample from the PBS side for precipitation. The mixture was vortexed for 5 min, and centrifuged (12000 rpm, 4° C.) for 10 min. […]

[3] = Plasma protein binding assay (equilibrium dialysis), mouse plasma; assay type: in vitro ADME
Description: as §1, §2, §3

[4] = Plasma protein binding assay (equilibrium dialysis), monkey plasma; assay type: in vitro ADME
Description: as §1, §2, §3

[5] = Plasma protein binding assay (equilibrium dialysis), dog plasma; assay type: in vitro ADME
Description: as §1, §2, §3

[6] = assay type: in vitro ADME
Description: A final incubation system of 300 μL contained 30 μL of liver microsomes (protein concentration: 0.15 mg/mL), 30 μL of NADPH+MgCl2, 3 μL of substrate (in acetonitrile) and 237 μL of PBS. Samples were prepared in duplicate of 0.3 mL for each specie. For each tube, the 270 μL mixed solution of substrates and enzyme and the NADPH solution were separately pre-incubated at 37° C. for 5 min. The 30 μL mixed solution of NADPH+MgCl2 was added for reaction. 50 μL samples were taken at 0 min, 10 min, 30 min and 60 min, and 300 μL of glacial acetonitrile containing an internal standard was added to the samples to terminate the reaction.
Sample pretreatment: 300 μL of glacial acetonitrile containing internal standard diazepam was added to 50 μL of the incubated sample for precipitation. The mixture was vortexed for 5 min, and centrifuged (12000 rpm, 4° C.) for 10 min. 75 μL of supernatant was added to a 96-well plate and diluted with 75 μL of ultrapure water. After being mixed well, 0.5 μL of the resulting sample was injected to a LC-MS/MS system for analysis.

[7] = system: HBV DNA in HepG2.2.15 cells; test: In-vitro inhibitory activity against HBV DNA in HepG2.2.15 cells; assay type: cell-based; settings: Hepatitis B virus, 144 h, 6 days treatment, intracellular capsid HBV DNA by qPCR, read-out: EC50 (anti-HBV activity)
Description: (§4) A vial of HepG2.2.15 cells (Wuhan Institute of Virology) or HepAD38 cells in good condition and at logarithmic growth phase was washed once with 5 mL of PBS. 3 mL of pancreatin was added. The cells were digested at room temperature for 5 min, then 2 mL of pancreatin was discarded. The cells were further digested in a cell incubator for 10 min, and observed under a microscope (whether the cells are round in shape, and whether the cells are separated or adhered). 10 mL of complete medium was added to terminate the digestion. The cells was mixed using a pipette to obtain a single cell suspension. 10 μL of the cell suspension was loaded on a cell counter for counting, and diluted with the complete medium to adjust the cell density to 1×10^5 cells/mL. The cells were seeded on a 24-well plate (pre-coated with 50 μg/mL Collagen I solution) at 1 mL/well using a multi-channel pipette and cultured in a thermostatic CO2 incubator for 48 h.
(§5) A solution of the compound dissolved in DMSO was diluted to 10 concentrations in a 2-fold gradient using complete medium. The cells were treated with the compound for 6 days with the media containing the compound refreshed every 72 h. […] HBV DNA in the intracellular viral capsid was measured by real-time fluorescent quantitative PCR. The inhibition rate was calculated according to the Ct value, and the EC50 value was calculated by four-parameter fitting.

HBV DNA in HepAD38 cells = test: In-vitro inhibitory activity against HBV DNA in HepAD38 cells; assay type: cell-based; settings: Hepatitis B virus, 144 h, 6 days treatment, intracellular capsid HBV DNA by qPCR, read-out: EC50 (anti-HBV activity)
Description: as §4, §5

[8] = Plasma protein binding assay (equilibrium dialysis), human plasma; assay type: in vitro ADME
Description: as §1, §2, §3

[9] = Stability assay of crystalline form (influential factors: high temperature, high humidity, illumination); assay type: physicochemical; settings: for Stability at high humidity, at high temperature or under illumination (in words): related substance and water over the observation items
Description: The crystalline form I of the compound of formula I prepared in Example 2 and the crystalline form II of the compound of formula I prepared in Example 4, each of 500 mg, were separately placed in dry and clean containers, and evenly spread in thin layers as test samples. The samples were completely exposed to experimental conditions of influential factors (40° C., 60° C., 75% RH, 92.5% RH, high temperature and high humidity (40° C., 75% RH)). Samples were taken for analysis on day 10 and day 30. The samples were completely exposed to illumination (visible light of 1,200,000 Lux·hr, UV of 216 W·hr/m^2) at room temperature.
Chromatographic column: Agilent AdvanceBio Peptide C18 (4.6 mm×150 mm, 3.5 μm).
The water content was measured by a Mettler V20 system.
About 10 mg of the sample was dissolved with an appropriate amount of a mixed diluent of acetonitrile-water (70:30) for content assay of related substance.

[10] = High humidity (92.5% RH), Day 10
[11] = High humidity (92.5% RH), Day 30
[12] = High temperature (40° C.), Day 10
[13] = High temperature (40° C.), Day 30
[14] = High temperature (60° C.), Day 10
[15] = High temperature (60° C.), Day 30
[16] = High temperature and high humidity (40° C., 75% RH), Day 10
[17] = High temperature and high humidity (40° C., 75% RH), Day 30

| SMILES | Related substance (total impurities) ([9]; Day 0) | Water ([9]; Day 0) | Related substance (total impurities) ([9]; High humidity (75% RH), Day 10) | Water ([9]; High humidity (75% RH), Day 10) | Related substance (total impurities) ([9]; High humidity (75% RH), Day 30) | Water ([9]; High humidity (75% RH), Day 30) | Related substance (total impurities) [9, 10] | Water [9, 10] | Related substance (total impurities) [9, 11] | Water [9, 11] | Related substance (total impurities) [9, 12] | Water [9, 12] | Related substance (total impurities) [9, 13] | Water [9, 13] | Related substance (total impurities) [9, 14] | Water [9, 14] | Related substance (total impurities) [9, 15] | Water [9, 15] | Related substance (total impurities) [9, 16] | Water [9, 16] | other results |
| --- | --- | --- | --- | --- | --- | --- | --- | --- | --- | --- | --- | --- | --- | --- | --- | --- | --- | --- | --- | --- | --- |
| Cc1c(C(=O)Nc2ccc(F)c(C#N)c2)c(C)n(C)c1C(=O)C(=O)N[C@@H](C)C(F)(F)F [Compound of formula I, (S)—N-(3-cyano-4-fluorophenyl)-1,2,4-trimethyl-5-(2-oxo-2-((1,1,1-trifluoropropan-2-yl)amino)acetyl)-1H-pyrrol-3-carboxamide] |  |  |  |  |  |  |  |  |  |  |  |  |  |  |  |  |  |  |  |  | F [1]: 57%; Binding rate, Rat ([2]; 1 μM): 82.0%; Binding rate, Rat ([2]; 10 μM): 79.2%; Binding rate, Mouse ([3]; 1 μM): 75.3%; Binding rate, Mouse ([3]; 10 μM): 74.5%; Binding rate, Monkey ([4]; 1 μM): 90.7%; Binding rate, Monkey ([4]; 10 μM): 90.6%; Binding rate, Dog ([5]; 1 μM): 85.9%; Binding rate, Dog ([5]; 10 μM): 85.9%; Residual content after 60 min, Human liver microsome [6]: 78.8%; Residual content after 60 min, Mouse liver microsome [6]: 67.1%; Residual content after 60 min, Rat liver microsome [6]: 65.0%; EC50 [7]: ≤ 10 nM; EC50 (HBV DNA in HepAD38 cells): ≤ 10 nM; Binding rate, Human ([8]; 1 μM): 94.0%; Binding rate, Human ([8]; 10 μM): 93.7% |
| Cc1c(C(=O)Nc2ccc(F)c(C#N)c2)c(C)n(C)c1C(=O)C(=O)N[C@@H](C)C(F)(F)F [crystalline form I, (S)—N-(3-cyano-4-fluorophenyl)-1,2,4-trimethyl-5-(2-oxo-2-((1,1,1-trifluoropropan-2-yl)amino)acetyl)-1H-pyrrol-3-carboxamide] | 0.55% | 0.27% | 0.72% | 0.19% | 0.66% | 0.20% | 0.69% | 0.21% | 0.66% | 0.26% | 0.66% | 0.18% | 0.63% | 0.19% | 0.66% | 0.20% | 0.60% | 0.18% | 0.64% | 0.17% | Related substance (total impurities) [9, 17]: 0.64%; Water [9, 17]: 0.22%; Related substance (total impurities) ([9]; Illumination, Day 10): 0.63%; Water ([9]; Illumination, Day 10): 0.16%; Stability at high humidity, at high temperature or under illumination (in words) [9]: good stability |
| Cc1c(C(=O)Nc2ccc(F)c(C#N)c2)c(C)n(C)c1C(=O)C(=O)N[C@@H](C)C(F)(F)F [crystalline form II, (S)—N-(3-cyano-4-fluorophenyl)-1,2,4-trimethyl-5-(2-oxo-2-((1,1,1-trifluoropropan-2-yl)amino)acetyl)-1H-pyrrol-3-carboxamide] | 0.24% | 0.22% | 0.23% | 0.22% | 0.25% | 0.21% | 0.23% | 0.22% | 0.24% | 0.21% | 0.22% | 0.20% | 0.24% | 0.19% | 0.22% | 0.18% | 0.24% | 0.18% | 0.24% | 0.24% | Related substance (total impurities) [9, 17]: 0.24%; Water [9, 17]: 0.21%; Related substance (total impurities) ([9]; Illumination, Day 10): 0.27%; Water ([9]; Illumination, Day 10): 0.22%; Stability at high humidity, at high temperature or under illumination (in words) [9]: good stability |
